Experimental data reported in patent US20220313651A1, “INHIBITORS OF ZIKA VIRUS INFECTION” (priority 2019, published 2022).

Assays:
in vitro = conditions: African green monkey
Protocol: The cytotoxicity of the Z-medicaments in Vero E6 (ZIKV target cells) was evaluated using the Cell Counting Kit-8 (CCK8).
Briefly, compounds at 2-fold serial dilutions were added to cells (2.0×10^4/well) pre-seeded in 96-well plates. The cells were cultured at 37° C. for 3 days, and incubated with CCK8 solution, followed by measurement of absorbance at 450 nm (A450 value) using microplate reader.

ZIKV NS2B-NS3 protease = target: T1, ZIKV NS2B-NS3 protease (Zika virus, UniProt Q32ZE1); experiment: Fluorescence-based inhibition of NS2B-NS3 protease activity; assay type: biochemical; conditions: substrate Bz-Nle-Lys-Lys-Arg-AMC 4 μM, protein 1 μg/ml
T1 construct: 49-97) and NS2 protein (residues 1-185) through a covalent; made in house; host or cells: E. coli
Protocol: (§1) Binding of compounds (NPs) to ZIKV full-length E (FIG. 3A), EDIII (FIG. 3B), and NS2B-NS3 (FIG. 3C) proteins, was detected by ELISA. The percent binding was reported in the presence or absence of serially diluted NPs using the formula (1-[E/EDIII-NP]/[E/EDIII])×100 (for E/EDIII binding) or (1-[NS2B-NS3-NP]/[NS2B-NS3])×100 (for NSEB-NS3 binding). […] The concentrations of ZIKV EDIII and mAbs were 1.5 and 0.5 μg/ml, respectively. […] The concentrations of substrate (Bz-Nle-Lys-Lys-Arg-AMC) and ZIKV NS2B-NS3 protein were 4 μM and 1 μg/ml, respectively. The percent inhibition of protease activity was calculated in the presence or absence of serially diluted compounds using the formula (1-[NS2B-NS3-substrate-NP]/[NS2B-NS3-substrate])×100. The IC50 values were calculated based on the percent inhibition. The data are expressed as mean±s.e.m. (n=4).

[1] = system: ZIKV human strain R103451; experiment: Protection of Ifnar1-/- mice from lethal ZIKV challenge (survival, weight); assay type: in vivo; conditions: 20 mg/kg i.p. 12 h before and 6, 24, 48 h after infection; ZIKV R103451 200 PFU/mouse; 21 days
Description: FIG. 8A is a schematic diagram of experimental procedures. […] The treated mice were infected with ZIKV human strain R103451 (200 plaque forming unit (PFU)/mouse), followed by evaluation of survival rate (FIG. 8B) or weight changes (FIG. 8C) for 21 days. The data are expressed as mean±s.e.m. of mice in each group (n=6). In a separate experiment, ST087010 or gossypol-treated mice were infected with ZIKV human strain PAN2016 (200, PFU/mouse). Five days post-infection (dpi), viral titers were detected in tissues by plaque assay (FIG. 8D), and ZIKV or caspase-3 signals were measured in eye (FIG. 8E) and testis ([…]) tissues by immunofluorescence staining. The data are expressed as mean±s.e.m. of mice in each group (n=5), and significant differences among different groups are shown as *, **, and ***. The detection limit is 25 PFU/g. ZIKV and caspase-3 (in FIG. 8E-F) were stained with anti-ZIKV and anti-active caspase-3 antibodies, respectively. Nuclei were stained with DAPI (40,6-diamidino-2-phenylindole). Representative images of immunofluorescence staining are shown. Magnification, 63×, and scale bar, 10 μm.
Adult male (3-4 or 7-8-week-old) and pregnant female (8-12-week-old, E12-14) Ifnar1^−/− mice were used in the study. […]
ST087010 was evaluated for protection against ZIKV infection in ZIKV-susceptible Ifnar1^−/− mice. […]

ZIKV NS2B-NS3 protein = target: T2, ZIKV NS2B-NS3 protein (Zika virus, UniProt Q32ZE1); experiment: SPR binding to ZIKV NS2B-NS3 protein; conditions: 1:1 binding model, read-out: Binding affinity (KD) to ZIKV NS2B-NS3 protein
T2 construct: 49-97) and NS2 protein (residues 1-185) through a covalent; made in house; host or cells: E. coli
Protocol: The interactions between the Z-medicaments and ZIKV full-length E or NS2B-NS3 protease were analyzed at 25° C. using the Biacore T200 system. Briefly, ZIKV E or NS2B-NS3 protein was immobilized on a sensor chip (CM5) using the Amine Coupling Kit. The disclosed Z-medicaments at various concentrations were subsequently injected as analytes, and PBS-P (20 mM phosphate buffer containing 2.7 mM KCl, 137 mM NaCl, and 0.05% surfactant P20, pH 7.4) was used as the running buffer. The data were analyzed using Biacore evaluation software (T200 version 1.0), and the curve was fitted with a 1:1 binding model.
Briefly, ZIKV EDIII protein or NS2B-NS3 protein were immobilized on a sensor chip (CM5) using Amine Coupling Kit. […] Biacore BK evaluation software (version 1.1) was applied to analyze the data, and the curve was fitted with a 1:1 binding model.

[2] = target: T3, binding between ZIKV EDIII and EDIII-specific mAb ZKA64-LALA (Zika virus, UniProt Q32ZE1, D679E/I627V/V603I/V629A); conditions: ELISA; EDIII 1.5 μg/ml, mAb 0.5 μg/ml; read-out: IC50, blocking EDIII-mAb binding, ZKA64-LALA
T3 construct: human Fc (C)
Protocol: as §1
(§2) ELISA was also used to determine the ability of ST087010 in inhibition of the binding between ZIKV EDIII and EDIII-specific human mAbs (SMZAb5, ZKA64-LALA, ZV-67, or Z004) or EDI/II-specific human mAb (ZKA78) control.

[3] = target: T4, binding between ZIKV EDIII and EDIII-specific mAb SMZAb5 (Zika virus, UniProt Q32ZE1, D679E/I627V/V603I/V629A); conditions: ELISA; EDIII 1.5 μg/ml, mAb 0.5 μg/ml; read-out: IC50, blocking EDIII-mAb binding, SMZAb5
T4 construct: human Fc (C)
Protocol: as §1, §2

[4] = target: T5, binding between ZIKV EDIII and EDIII-specific mAb ZV-67 (Zika virus, UniProt Q32ZE1, D679E/I627V/V603I/V629A); conditions: ELISA; EDIII 1.5 μg/ml, mAb 0.5 μg/ml; read-out: IC50, blocking EDIII-mAb binding, ZV-67
T5 construct: human Fc (C)
Protocol: as §1, §2

[5] = target: T6, binding between ZIKV EDIII and EDIII-specific mAb Z004 (Zika virus, UniProt Q32ZE1, D679E/I627V/V603I/V629A); conditions: ELISA; EDIII 1.5 μg/ml, mAb 0.5 μg/ml; read-out: IC50, blocking EDIII-mAb binding, Z004
T6 construct: human Fc (C)
Protocol: as §1, §2

Cc1cc2c(C(C)C)c(O)c(O)c(C=O)c2c(O)c1-c1c(C)cc2c(C(C)C)c(O)c(O)c(C=O)c2c1O [Gossypol, gossypol]
CC50 at 3 days (in vitro): 14.49 ± 0.07 µM

COc1cc(/C=C/C(=O)CC(=O)/C=C/c2ccc(O)c(OC)c2)ccc1O [Curcumin, curcumin]
Inhibition of NS2B-NS3 protease activity (in words) (ZIKV NS2B-NS3 protease): low inhibitory activity

Cc1cc2c(C(C)C)c(O)c(O)c(/C=N/n3c(=O)[nH][nH]c3=O)c2c(O)c1-c1c(C)cc2c(C(C)C)c(O)c(O)c(/C=N/n3c(=O)[nH][nH]c3=O)c2c1O [ST087010]
Survival (mice protected from death) [1]: 50%
Weight changes [1]: slight weight loss during 6-12 dpi
IC50 (ZIKV NS2B-NS3 protease; read-out: IC50, inhibition of ZIKV NS2B-NS3 protease cleavage): 4.84 µM
Kd (ZIKV NS2B-NS3 protein): 19.9 µM
IC50 [2]: 4.17 µM
IC50 [3]: 5.72 µM
IC50 [4]: 6.7 µM
IC50 [5]: 44.5 µM
